In patent EP2292225A1 (priority 1997, dated 1998):
Values joined by “and” are separate entries in the source; they are usually repeats but may differ in a detail not shown here. Equal values may be shown once. “Also recorded” adds a separate entry of the source.

How the values were obtained:
[1] = test system: Vascular smooth muscle (BO54) cells; format: cell-based, baboon
left carotid artery [2] = details: rat, in vivo
left carotid artery [3] = assay: Periadventitial delivery of crystals in pluronic gel after balloon trauma; format: in vivo, rats
Procedure: To further evaluate the efficacy of crystalline taxol to inhibit neointimal formation in rats, four groups of 5-6 adult male rats underwent balloon trauma of the left carotid artery followed immediately by periadventitial delivery of 1, 0.1,0.01 or 0 mg of taxol crystals in 500 mg of a pluronic polymer in gel matrix. Fourteen days later, the rats were sacrificed, serum was collected and their carotid arteries were processed for histologic and morphometric analysis.

[4] = test system: balloon traumatized rabbit carotid artery; format: in vivo; details: rabbit, in vivo
[5] = MTT activity in human liver slices after 24 hour exposure; format: cell-based; details: for MTT Absorbance: 24 hours, mean +/- standard deviation of triplicate liver samples
Procedure: The cytotoxity of ^3H-cytochalasin B and its subsequent metabolites was also assessed by evaluating dose dependent changes in mitochondrial function by monitoring 3-[4, 5-dimethylthiazol-2yl]-2, 5-diphenyltetrazolium bromide (MTT) activity following a 24 hour exposure of human liver slices to the test agent (Table 10).

[6] = Human liver slices distribution and metabolism study (HPLC); format: in vitro ADME; details: for % Activity in Media / % Activity in Tissue: 37°C
Procedure: (§1) ^3H-cytochalasin B (2 µg; 30 µCi/µg) was injected i.v. into BALB/c mice having urinary bladders that had been externally ligated. Animals were sacrificed at 15 minutes, 30 minutes, 2 hours or 16 hours post-injection. Organs were removed, blotted, weighed, air dried and assayed for radioactivity. Fifty - 73% of the total injected dose was accounted for in the tissues sampled (blood, heart, brain, muscle, bone, lung, liver, spleen, stomach, kidney, intestines, and urinary bladder). Clearance of ^3H-cytochalasin B from the blood was extremely rapid with less than 1% of the injected dose in circulation by 15 minutes. […] Cytochalasin B Metabolism. ^3H-cytochalasin B at a dose of 1.5 or 8 µg/ml was mixed with viable or non-viable human liver slices and media, and the amount of ^3H-cytochalasin B in media or tissue assessed by HPLC (Tables 8 and 9).

[7] = Biodistribution of ^3H-cytochalasin B i.v.; format: in vivo, BALB/c mice
Procedure: as §1

[8] = Tissue distribution after intravascular delivery of crystals; format: in vivo, swine; details: 10 µg/ml crystals in saline (saturated), three minutes under 1 atm
Procedure: The in vivo tissue distribution of cytochalasin B administered in crystalline form was evaluated in balloon traumatized swine femoral arteries after local delivery. A femoral artery of a Yorkshire crossbred swine was balloon traumatized by overinflation and rotation of a Vascu-Flo™ Silicone embolectomy catheter. Balloon trauma was immediately followed by intravascular delivery of 10 µg/ml ^3H-cytochalasin B crystals (Sigma Chemical Co., St. Louis, MO) in saline (saturated) for three minutes under 1 atm of pressure. Blood flow was resumed in the artery for five minutes prior to sacrifice of the animal.

[9] = 1.5 µg/ml, Media/viable tissue, 1/4/24 Hours = r5/r6/r7
[10] = 1.5 µg/ml, Media/viable tissue, 1/4/24 Hours = r2/r3/r4
[11] = 8 µg/ml, Media/boiled tissue, 1/4/24 Hours = r8/r9/r10
[12] = 8 µg/ml, Media/viable tissue, 1/4/24 Hours = r2/r3/r4
[13] = 8 µg/ml, Media/viable tissue, 1/4/24 Hours = r5/r6/r7

In the case of `CC(=O)O[C@@H]1/C=C\[C@@](C)(O)C(=O)[C@@H](C)C/C=C\[C@H]2[C@H](O)C(C)=C(C)[C@H]3C(Cc4ccccc4)NC(=O)[C@]132` (stereo partly drawn) [cytochalasin C], the “minimum effective dose (MED), DNA synthesis assay” value [1] is reported as 0.01 µg/mL.
With `O=[N+]([O-])OCC(CO[N+](=O)[O-])O[N+](=O)[O-]` [nitroglycerin] the “therapeutic range (area under the curve of ^3H-leucine assay greater than ^3H-thymidine assay)” value (“therapeutic range” below) [1] was “available therapeutic range”.
With `CN[C@@H]1C[C@H]2O[C@@](C)([C@@H]1OC)n1c3ccccc3c3c4c(c5c6ccccc6n2c5c31)C(=O)NC4` [staurosporin] the “therapeutic range” value [1] was “available therapeutic range”.
In the case of `Cc1ccc(C(=O)Nc2ccc(S(=O)(=O)O)c3cc(S(=O)(=O)O)cc(S(=O)(=O)O)c23)cc1NC(=O)c1cccc(NC(=O)Nc2cccc(C(=O)Nc3cc(C(=O)Nc4ccc(S(=O)(=O)O)c5cc(S(=O)(=O)O)cc(S(=O)(=O)O)c45)ccc3C)c2)c1` [suramin], the “therapeutic range” value [1] is reported as “available therapeutic range”.
For `CC(=O)O[C@H]1C(=O)[C@@]2(C)[C@H]([C@H](OC(=O)c3ccccc3)[C@]3(O)C[C@H](OC(=O)[C@H](O)[C@@H](NC(=O)c4ccccc4)c4ccccc4)C(C)=C1C3(C)C)[C@]1(OC(C)=O)CO[C@@H]1C[C@@H]2O` [taxol], the “morphometry compared to untreated control animals” value (left carotid artery [2]) was “statistically significantly larger luminal areas and no neointimal proliferation”, the “toxicity at the surgical site” value (left carotid artery [2]) was “significant toxicity at the surgical site” and the “myonecrosis of the adjacent skeletal muscle (animals)” value (shortened to “myonecrosis”) (left carotid artery [3]; 0.01 mg crystals in 500 mg pluronic gel) was 0/4. The “myonecrosis” value (left carotid artery [3]; 0.1 mg crystals in 500 mg pluronic gel) was 1/5, the “myonecrosis” value (left carotid artery [3]; 1 mg crystals in 500 mg pluronic gel) was 3/3 and the “neointimal area less than that of control animals” value (left carotid artery [3]; 1 mg crystals in 500 mg pluronic gel, too few animals for statistics) was 38%. For the same compound, the “neointimal area and neointimal/medial ratio compared to control animals” value (left carotid artery [3]; 0.1 and 0.01 mg, did not reach statistical significance) was “a reduction in their neointimal area and neointimal/medial ratio was observed”, the “toxicity by dose group” value (left carotid artery [3]; crystals in pluronic gel) was “no (0.01 mg), minimal (0.1 mg) or limited (1.0 mg) toxicity” and the intimal proliferation [4] was “no intimal or adventitial proliferation; also recorded: no intimal proliferation; also recorded: only minimal intimal proliferation”.
With ^3H-cytochalasin B the “MTT Absorbance” value ([5]; 0.1 µg/ml) was 0.844 +/- 0.014, the “MTT Absorbance” value ([5]; 1.5 µg/ml) was 0.841 +/- 0.081 and the “MTT Absorbance” value ([5]; 8.0 µg/ml) was 0.850 +/- 0.082. For the same compound, the “cytotoxicity of ^3H-cytochalasin B or its subsequent metabolites” value ([5]; 24 hour exposure) was “not cytotoxic”, the “% Extractable Activity” value [6, 9] was 99.5% and 99.4% and 99.6% and the “%Non extractable Activity” value [6, 9] was 0.5% and 0.6% and 0.4%. The “% Activity in Media” value [6, 10] was 84% and 91%, the “% Activity in Tissue” value [6, 10] was 16% and 9% and the “% Metabolized of Extractable Activity” value ([6]; 8 µg/ml, Media Only, 1/4/24 Hours = r11/r12/r13) was 5% and 4%. The “% Extractable Activity” value [6, 11] was 98.7% and 99.5% and 99.0%, the “% Metabolized of Extractable Activity” value [6, 11] was 5% and the “%Non extractable Activity” value [6, 11] was 1.3% and 0.5% and 1%. The “% Activity in Media” value [6, 11] was 87% and 83%, the “% Activity in Tissue” value [6, 11] was 13% and 17% and the “% Extractable Activity” value [6, 12] was 99.5% and 99.0% and 98.7%. The “%Non extractable Activity” value [6, 12] was 0.5% and 1% and 1.3%, the “% Activity in Media” value [6, 13] was 88% and 84% and 89% and the “% Activity in Tissue” value [6, 13] was 12% and 16% and 11%. The metabolized ([6]; within 24 hours) was 98%, the “^3H activity in all tissues” value ([7]; by 16 hours) was “below 1.5 % injected dose per gram of tissue” and the “retention of ^3H activity” value ([7]; mouse, in vivo) was “Only liver, skeletal muscle and intestines showed significant retention”. For the same compound, the amount delivered [8] was 31 µg and the tissue distribution [8] was “localized predominantly to the adventitia”.
